Measurements reported in ChEMBL document CHEMBL1128654, “4,4-Diphenyl-7-perhydrothiapyrano[3,4-c]pyrrolone, a new series of substance P receptors antagonists” (Bioorg Med Chem Lett, 1995).
pIC50: −log10 of the molar value.

Key:
Substance-P receptor [1] = target: Substance-P receptor (Rattus norvegicus, UniProt P14600); test: Compound was tested for its binding affinity to NK1 receptor in [3H]SP binding assay on rat brain membranes.
Substance-P receptor [2] = target: Substance-P receptor (Homo sapiens, UniProt P25103); test: Compound was tested for its binding affinity to NK1 receptor in [3H]SP binding assay on human IM9 lymphoblasts cultured cell line.
Chain of Substance-P receptor (Homo sapiens, UniProt P25103) (P25103 whole entry): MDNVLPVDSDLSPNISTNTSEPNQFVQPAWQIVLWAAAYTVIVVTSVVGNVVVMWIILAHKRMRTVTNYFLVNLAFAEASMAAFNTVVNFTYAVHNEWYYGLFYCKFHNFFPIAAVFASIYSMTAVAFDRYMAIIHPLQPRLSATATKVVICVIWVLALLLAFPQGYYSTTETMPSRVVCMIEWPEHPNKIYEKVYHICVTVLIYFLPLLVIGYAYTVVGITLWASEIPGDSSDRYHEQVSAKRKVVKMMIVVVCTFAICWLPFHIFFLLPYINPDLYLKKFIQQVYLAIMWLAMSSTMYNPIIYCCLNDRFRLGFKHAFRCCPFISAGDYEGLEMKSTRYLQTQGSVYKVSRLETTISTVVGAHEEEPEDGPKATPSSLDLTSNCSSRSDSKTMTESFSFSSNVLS

Rattus norvegicus [3] = test: Compound was administered intravenously and evaluated in vivo for its inhibition of SP-induced plasma extravasation in rat; format: functional; settings: iv
Rattus norvegicus [4] = test: Compound was administered orally and evaluated in vivo for its inhibition of SP-induced plasma extravasation in rat; format: functional; settings: po
Rattus norvegicus [5] = test: Compound was administered perorally and evaluated in vivo for its inhibition of SP-induced plasma extravasation in rat; format: functional; settings: po

Chain of Substance-P receptor (Rattus norvegicus, UniProt P14600) (P14600 whole entry): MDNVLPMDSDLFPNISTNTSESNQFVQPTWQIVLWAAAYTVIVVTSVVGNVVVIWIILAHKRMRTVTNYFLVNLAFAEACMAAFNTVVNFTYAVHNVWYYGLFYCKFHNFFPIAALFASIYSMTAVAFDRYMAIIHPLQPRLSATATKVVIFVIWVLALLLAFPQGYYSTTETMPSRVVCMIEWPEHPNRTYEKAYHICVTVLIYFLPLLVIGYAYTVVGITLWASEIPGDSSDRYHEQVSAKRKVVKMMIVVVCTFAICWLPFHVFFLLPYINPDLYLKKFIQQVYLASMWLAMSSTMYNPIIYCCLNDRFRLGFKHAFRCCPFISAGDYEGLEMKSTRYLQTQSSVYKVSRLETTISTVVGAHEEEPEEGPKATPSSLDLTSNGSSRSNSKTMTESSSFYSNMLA

Row | pIC50 (Substance-P receptor [1]) | pIC50 (Substance-P receptor [2]) | Structure (SMILES) | ED50 (Rattus norvegicus [3]) [mg/kg] | ED50 (Rattus norvegicus [4]) [mg/kg] | ED50 (Rattus norvegicus [5]) [mg/kg]
1 | 5.52 | 7.42 | COc1ccccc1[C@H](C)C(=O)N1C[C@@H]2[C@H](C1)[C@@](O)(c1ccccc1OC)CSC2(c1ccccc1)c1ccccc1 | – | – | –
2 | 8.70 | 8.05 | COc1ccccc1CC(=N)N1CC2C(=O)CSC(c3ccccc3)(c3ccccc3)C2C1 (stereo unspecified) | < 1 | > 10 | –
3 | 6.33 | – | CN(C)c1ccccc1CC(=O)N1C[C@@H]2C(=O)C[S+]([O-])C(c3ccccc3)(c3ccccc3)[C@@H]2C1 (stereo partly specified) | – | – | –
4 | 5.85 | 7.89 | COc1ccccc1[C@H](C)C(=O)N1C[C@@H]2[C@H](C1)C(c1ccccc1)(c1ccccc1)CC[C@@]2(O)c1ccccc1OC [DAPITANT] | – | – | –
5 | 8.10 | 7.31 | COc1ccccc1CC(=N)N1C[C@@H]2C(=O)CCC(c3ccccc3)(c3ccccc3)[C@@H]2C1 | – | – | –
6 | 7.11 | 6.43 | CN(C)c1ccccc1CC(=O)N1C[C@H]2[C@@H](C1)C(c1ccccc1)(c1ccccc1)SC[C@@H]2O | – | – | –
7 | 7.59 | 7.29 | CN(C)CCCOc1ccccc1CC(=O)N1CC2C(=O)CSC(c3ccccc3)(c3ccccc3)C2C1 (stereo unspecified) | – | – | –
8 | 7.39 | 7.08 | CN(C)c1ccccc1CC(=O)N1CC2C(=O)CSC(c3ccccc3)(c3ccccc3)C2C1 (stereo unspecified) | – | – | –
9 | 8.30 | 7.82 | COc1ccccc1[C@H](SC)C(=O)N1CC2C(=O)CSC(c3ccccc3)(c3ccccc3)C2C1 (stereo partly specified) | 0.1 | – | 0.8
